In one experiment the target is T1, BTK-WT (Homo sapiens, UniProt Q06187).
T1 construct: purified from insect cells as a full-length construct containing an N-terminal 6X-His tag; His6 (N); made in house; host or cells: insect cells (baculovirus Sf21 in Method B)
Briefly: Btk in vitro inhibitory activity (one of Method A TR-FRET, Method B electrophoretic mobility shift, Method C radiometric filter binding). To be noted: D-compounds panel data; read-out: IC50 BTK-WT. In kind it is biochemical. (In general: A gel shift assay detects complexes by their altered migration in electrophoresis.)

A further experiment addresses T2, JAK3 (Homo sapiens, UniProt P52333).
T2 sequence (P52333 1-1124): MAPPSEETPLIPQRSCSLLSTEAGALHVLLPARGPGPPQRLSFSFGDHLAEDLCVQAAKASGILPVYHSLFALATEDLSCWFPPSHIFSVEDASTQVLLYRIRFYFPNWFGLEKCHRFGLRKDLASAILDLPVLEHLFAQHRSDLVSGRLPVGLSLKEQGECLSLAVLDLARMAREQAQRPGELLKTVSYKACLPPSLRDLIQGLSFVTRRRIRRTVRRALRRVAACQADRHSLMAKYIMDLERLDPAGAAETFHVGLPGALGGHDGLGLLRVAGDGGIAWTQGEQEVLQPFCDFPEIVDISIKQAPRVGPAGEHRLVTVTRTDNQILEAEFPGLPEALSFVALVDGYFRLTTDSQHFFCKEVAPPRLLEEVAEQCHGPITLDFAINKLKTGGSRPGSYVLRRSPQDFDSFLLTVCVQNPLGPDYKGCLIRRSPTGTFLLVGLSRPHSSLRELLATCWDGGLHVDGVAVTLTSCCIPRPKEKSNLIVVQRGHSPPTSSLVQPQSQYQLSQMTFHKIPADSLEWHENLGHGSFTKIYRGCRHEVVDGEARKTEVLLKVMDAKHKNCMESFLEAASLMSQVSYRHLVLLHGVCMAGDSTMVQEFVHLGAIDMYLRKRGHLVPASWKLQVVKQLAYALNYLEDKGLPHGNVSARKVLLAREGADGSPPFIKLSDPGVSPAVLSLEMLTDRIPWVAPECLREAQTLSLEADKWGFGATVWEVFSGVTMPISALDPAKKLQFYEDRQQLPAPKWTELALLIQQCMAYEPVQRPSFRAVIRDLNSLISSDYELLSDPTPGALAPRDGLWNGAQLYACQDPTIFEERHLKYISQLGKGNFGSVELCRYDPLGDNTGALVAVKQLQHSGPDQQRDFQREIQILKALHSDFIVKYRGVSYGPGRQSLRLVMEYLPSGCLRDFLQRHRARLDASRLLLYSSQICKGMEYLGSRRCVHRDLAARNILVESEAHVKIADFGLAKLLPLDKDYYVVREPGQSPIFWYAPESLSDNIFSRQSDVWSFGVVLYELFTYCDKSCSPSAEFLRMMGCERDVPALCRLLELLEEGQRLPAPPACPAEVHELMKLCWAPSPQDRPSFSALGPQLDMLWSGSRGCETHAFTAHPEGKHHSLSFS
Description: Inhibition of a panel of kinases, in vitro HotSpot kinase assay: JAK3. The following applies: D-compounds panel data; 1 μM ATP; read-out: IC50 JAK3. The class given is biochemical.

Where only a bound is given, the exact number is not on record here.

T1 sequence (Q06187 whole entry): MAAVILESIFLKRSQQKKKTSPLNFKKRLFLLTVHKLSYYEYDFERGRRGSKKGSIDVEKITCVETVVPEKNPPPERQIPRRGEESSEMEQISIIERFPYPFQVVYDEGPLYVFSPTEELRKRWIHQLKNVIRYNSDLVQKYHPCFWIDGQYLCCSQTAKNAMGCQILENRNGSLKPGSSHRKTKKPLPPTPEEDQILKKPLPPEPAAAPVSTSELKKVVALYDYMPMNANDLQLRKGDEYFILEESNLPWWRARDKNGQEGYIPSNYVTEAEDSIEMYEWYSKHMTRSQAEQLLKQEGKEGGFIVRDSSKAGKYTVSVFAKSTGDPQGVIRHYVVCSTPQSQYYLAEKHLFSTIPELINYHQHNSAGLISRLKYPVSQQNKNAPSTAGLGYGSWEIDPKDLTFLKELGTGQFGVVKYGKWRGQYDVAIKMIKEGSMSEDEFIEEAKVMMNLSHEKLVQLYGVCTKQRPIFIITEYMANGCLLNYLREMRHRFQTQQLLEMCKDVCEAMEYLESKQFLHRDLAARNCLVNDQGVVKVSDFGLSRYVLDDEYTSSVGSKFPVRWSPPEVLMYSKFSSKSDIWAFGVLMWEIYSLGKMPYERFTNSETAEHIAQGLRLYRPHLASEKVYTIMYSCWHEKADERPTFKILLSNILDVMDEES

What is called IC50 is the concentration that inhibits the measured activity by half. Consider `C[C@@H]1[C@H](NC(=O)c2ccc(C3CC3)cc2F)CCCN1c1cnc(C(N)=O)c(Nc2ccc3ncccc3c2)n1` [Example D-114, 5-[(2R,3R)-3-(4-cyclopropyl-2-fluorobenzamido)-2-methylpiperidin-1-yl]-3-[(quinolin-6-yl)amino]pyrazine-2-carboxamide], for which the IC50 on BTK-WT was 10 to 100 nM; on JAK3, above 10000 nM.

`CN1CCN(Cc2ccc(Nc3nc(N4CCC[C@@H](n5ccc6cc(C7CC7)ccc6c5=O)C4)cnc3C(N)=O)cc2)CC1` [Example D-167, 5-[(3R)-3-(6-cyclopropyl-1-oxo-1,2-dihydroisoquinolin-2-yl)piperidin-1-yl]-3-({4-[(4-methylpiperazin-1-yl)methyl]phenyl}amino)pyrazine-2-carboxamide]: the IC50 is at most 10 nM at BTK-WT and 100 to 1000 nM on JAK3.

For the molecule `C[C@@H]1[C@H](NC(=O)c2ccc(C3CC3)cc2)CCCN1c1cnc(C(N)=O)c(Nc2cnn(C)c2)n1` [Example D-135, 5-[(2R,3R)-3-(4-cyclopropylbenzamido)-2-methylpiperidin-1-yl]-3-[(1-methyl-1H-pyrazol-4-yl)amino]pyrazine-2-carboxamide], the values for the 50% inhibitory concentration (IC50) at BTK-WT and at JAK3 were at most 10 nM and 1000 to 10000 nM, respectively.

With `C[C@@H]1CC[C@H](NC(=O)c2ccc(C3CC3)cc2)CN1c1cnc(C(N)=O)c(Nc2cnn(C)c2)n1` [Example D-145, 5-[(2R,5S)-5-(4-cyclopropylbenzamido)-2-methylpiperidin-1-yl]-3-[(1-methyl-1H-pyrazol-4-yl)amino]pyrazine-2-carboxamide], the IC50 at BTK-WT is 10 to 100 nM; on JAK3, above 10000 nM.

On to `C[C@@H]1[C@H](NC(=O)c2ccc(C3CC3)cc2F)CCCN1c1cnc(C(N)=O)c(Nc2ccc(CN3CCN(C)CC3)cc2)c1` [Example D-125, 5-[(2R,3R)-3-(4-cyclopropyl-2-fluorobenzamido)-2-methylpiperidin-1-yl]-3-({4-[(4-methylpiperazin-1-yl)methyl]phenyl}amino)pyridine-2-carboxamide], for which the half-inhibitory concentration (IC50) was at most 10 nM at BTK-WT and 1000 to 10000 nM at JAK3.

Consider `C[C@@H]1[C@H](NC(=O)N(C)C)CCCN1c1cnc(C(N)=O)c(Nc2ccc(N3CCN(C)CC3)cc2)c1` [Example D-127, 5-[(2R,3R)-3-[(dimethylcarbamoyl)amino]-2-methylpiperidin-1-yl]-3-{[4-(4-methylpiperazin-1-yl)phenyl]amino}pyridine-2-carboxamide], for which the IC50 at BTK-WT was 100 to 1000 nM; at JAK3 it was above 10000 nM.

For `CC(=O)NC(C)(C)c1ccc(C(=O)N[C@@H]2CCCN(c3cnc(C(N)=O)c(Nc4cnn(C)c4)n3)[C@@H]2C)cc1` [Example D-107, 5-[(2R,3R)-3-[4-(2-acetamidopropan-2-yl)benzamido]-2-methylpiperidin-1-yl]-3-[(1-methyl-1H-pyrazol-4-yl)amino]pyrazine-2-carboxamide], the half-inhibitory concentration (IC50) on BTK-WT is at most 10 nM; on JAK3, 1000 to 10000 nM.

As for `C[C@@H]1[C@H](NC(=O)c2ccc(C3CC3)cc2F)CCCN1c1cnc(C(N)=O)c(Nc2ccc(N3CCN(C4CCCC4)CC3)cc2)n1` [Example D-5, 3-{[4-(4-cyclopentylpiperazin-1-yl)phenyl]amino}-5-[(2R,3R)-3-(4-cyclopropyl-2-fluorobenzamido)-2-methylpiperidin-1-yl]pyrazine-2-carboxamide], the IC50 was at most 10 nM at BTK-WT and 100 to 1000 nM on JAK3.

`C[C@@H]1[C@H](NC(=O)N(C)C)CCCN1c1cnc(C(N)=O)c(Nc2cc(CN3CCOCC3)ns2)n1` [Example D-118, 5-[(2R,3R)-3-[(dimethylcarbamoyl)amino]-2-methylpiperidin-1-yl]-3-{[3-(morpholin-4-ylmethyl)-1,2-thiazol-5-yl]amino}pyrazine-2-carboxamide]: the concentration for half-maximal inhibition (IC50) is at most 10 nM at BTK-WT and 1000 to 10000 nM on JAK3.

As to `CN1CCN(c2ccc(Nc3nc(N4CCC[C@@H](n5ccc6cc(C7CC7)ccc6c5=O)C4)cnc3C(N)=O)cc2)CC1` [Example D-165, 5-[(3R)-3-(6-cyclopropyl-1-oxo-1,2-dihydroisoquinolin-2-yl)piperidin-1-yl]-3-{[4-(4-methylpiperazin-1-yl)phenyl]amino}pyrazine-2-carboxamide], the 50% inhibitory concentration (IC50) at BTK-WT was at most 10 nM; at JAK3 it was 1000 to 10000 nM.

As to `C[C@@H]1[C@H](NC(=O)c2ccc(C3CC3)cc2)CCCN1c1cnc(C(N)=O)c(Nc2ccc(N3CCN(C)CC3)c(F)c2)n1` [Example D-146, 5-[(2R,3R)-3-(4-cyclopropylbenzamido)-2-methylpiperidin-1-yl]-3-{[3-fluoro-4-(4-methylpiperazin-1-yl)phenyl]amino}pyrazine-2-carboxamide], the results for the half-inhibitory concentration (IC50) at BTK-WT and at JAK3 were at most 10 nM and 1000 to 10000 nM, respectively.

Take `Cc1cc(Nc2nc(N3CCC[C@@H](NC(=O)c4ccc(C(C)(C)O)cc4)[C@H]3C)cnc2C(N)=O)sn1` [Example D-159, 5-[(2R,3R)-3-[4-(2-hydroxypropan-2-yl)benzamido]-2-methylpiperidin-1-yl]-3-[(3-methyl-1,2-thiazol-5-yl)amino]pyrazine-2-carboxamide]: the half-inhibitory concentration (IC50) at BTK-WT is at most 10 nM; at JAK3 it was 100 to 1000 nM.

For `C[C@@H]1[C@H](NC(=O)N(C)C)CCCN1c1cnc(C(N)=O)c(Nc2cnn(C)c2)n1` [Example D-128, 5-[(2R,3R)-3-[(dimethylcarbamoyl)amino]-2-methylpiperidin-1-yl]-3-[(1-methyl-1H-pyrazol-4-yl)amino]pyrazine-2-carboxamide], the IC50 at BTK-WT was at most 10 nM; on JAK3, 1000 to 10000 nM.

`Cc1cc(Nc2cc(N3CCC[C@@H](NC(=O)c4ccc(C5CC5)cc4F)[C@H]3C)cnc2C(N)=O)sn1` [Example D-116, 5-[(2R,3R)-3-(4-cyclopropyl-2-fluorobenzamido)-2-methylpiperidin-1-yl]-3-[(3-methyl-1,2-thiazol-5-yl)amino]pyridine-2-carboxamide]: the IC50 was at most 10 nM on BTK-WT and 1000 to 10000 nM on JAK3.

Turning to `C[C@@H]1[C@H](NC(=O)c2ccc(C3CC3)cc2)CCCN1c1cnc(C(N)=O)c(Nc2ccc(OC3CCCN(C)C3)cc2)n1` (stereo partly drawn) [Example D-105, 5-[(2R,3R)-3-(4-cyclopropylbenzamido)-2-methylpiperidin-1-yl]-3-({4-[(1-methylpiperidin-3-yl)oxy]phenyl}amino)pyrazine-2-carboxamide], the figures for the 50% inhibitory concentration (IC50) on BTK-WT and at JAK3 were at most 10 nM and 100 to 1000 nM, respectively.

Turning to `C[C@@H]1CC[C@H](NC(=O)c2ccc(C3CC3)cc2)CN1c1cnc(C(N)=O)c(Nc2ccc(N3CCN(C)CC3)c(F)c2)n1` [Example D-149, 5-[(2R,5 S)-5-(4-cyclopropylbenzamido)-2-methylpiperidin-1-yl]-3-{[3-fluoro-4-(4-methylpiperazin-1-yl)phenyl]amino}pyrazine-2-carboxamide], the half-inhibitory concentration (IC50) lay within 10 to 100 nM on BTK-WT and 1000 to 10000 nM at JAK3.

On to `Cc1nsc(Nc2nc(N3CCC[C@@H](NC(=O)N(C)C)[C@H]3C)cnc2C(N)=O)c1C` [Example D-119, 3-[(dimethyl-1,2-thiazol-5-yl)amino]-5-[(2R,3R)-3-[(dimethylcarbamoyl)amino]-2-methylpiperidin-1-yl]pyrazine-2-carboxamide], for which the concentration for half-maximal inhibition (IC50) is 100 to 1000 nM at BTK-WT and above 10000 nM at JAK3.

`C[C@@H]1[C@H](NC(=O)c2ccc(C(C)(C)O)c(F)c2)CCCN1c1cnc(C(N)=O)c(Nc2cnn(C)c2)n1` [Example D-160, 5-[(2R,3R)-3-[3-fluoro-4-(2-hydroxypropan-2-yl)benzamido]-2-methylpiperidin-1-yl]-3-[(1-methyl-1H-pyrazol-4-yl)amino]pyrazine-2-carboxamide]: the IC50 at BTK-WT is at most 10 nM; at JAK3 it was 100 to 1000 nM.

Turning to `Cc1ccc(-c2cnc([C@H]3CCCN(c4cnc(C(N)=O)c(Nc5cc(C)ns5)n4)C3)[nH]2)cc1` [Example D-136, 3-[(3-methyl-1,2-thiazol-5-yl)amino]-5-[(3S)-3-[5-(4-methylphenyl)-1H-imidazol-2-yl]piperidin-1-yl]pyrazine-2-carboxamide], the IC50 on BTK-WT lay in the range of 10 to 100 nM; at JAK3, 1000 to 10000 nM.

On to `C[C@@H]1[C@H](NC(=O)c2ccc(C3CC3)cc2)CCCN1c1cnc(C(N)=O)c(Nc2ccc(OC3C[C@H]4CC[C@@H](C3)N4C)cc2)n1` (stereo partly drawn) [Example D-106, 5-[(2R,3R)-3-(4-cyclopropylbenzamido)-2-methylpiperidin-1-yl]-3-[(4-{[(1R,5S)-8-methyl-8-azabicyclo[3.2.1]octan-3-yl]oxy}phenyl)amino]pyrazine-2-carboxamide], for which the figures for the half-maximal inhibitory concentration (IC50) on BTK-WT and on JAK3 were at most 10 nM and 100 to 1000 nM, respectively.

(Values after patent US20210070748A1, “INHIBITORS OF BRUTONS TYROSINE KINASE” (Pharmacyclics LLC, priority 2015, published 2021).)
